# Data published in patent US10342806B2, “Hormone treatment for age-related hearing loss-presbycusis” (priority 2014, dated 2019).
# Key:
# Type in all cases: in vivo, mouse
# CBA/CaJ mice = assay: Auditory brainstem response (ABR) thresholds in aging CBA/CaJ mice
# Description: After 60 (2 months) or 120 days (4 months) of ALD implantation, mice were anesthetized with a combination of ketamine and xylazine (100 μl i.p. of sterile saline containing 100 mg/ml ketamine and […]) for ABR measurements.
# Auditory brainstem responses (ABRs) were measured again at 2 and 4 months after treatment started
# Auditory brainstem responses were obtained as follows. The mice were anesthetized with a mixture of ketamine/xylazine (120 and 10 mg/kg body weight, respectively, intraperitoneal injection) prior to all experimental sessions. All recording sessions were completed in a soundproof acoustic chamber (IAC) with body temperature maintained with a heating pad. ABRs were measured using Biosig (TDT, Alachua, Fla.) data-acquisition system which recorded responses to 5 ms tone pips ([…] rise-fall times) with a cos^2 onset envelope, presented at rate of 29/sec. Wave I threshold was defined as the lowest intensity which elicited a clearly replicable response. ABRs were measured pre-treatment and post-treatment at 2 and 4 mon. The pre-treatment ABR threshold was used as the baseline to calculate the thresholds shifts. The wave I peak-to-peak amplitudes were analyzed. Data was compared using GraphPad Prism 5.0 (GraphPad Software, Inc. La Jolla, Calif., USA.
# As male mice weigh on average 28.0 g at week 9 and female mice 23.1 g, doses of the anti-inflammatory were designed to bracket a dose of 5 mg/kg/day. A total five groups (n=8, half male and half female) were tested. Treatment continued for 120 days or until the mouse was euthanized. […] Death was confirmed by terminal phlebotomy/exsanguinations and perfusion.
# Mice were treated at middle age, as above, using 0.0016 mg/day of D-aldosterone, a combination of 0.0016 mg/day of D-aldosterone and 0.042 mg/day of Aspirin; and a control placebo (saline).
# [1] = tested on: mineralocorticoid receptors (MCR); assay: MCR expression in spiral ganglion neurons (western blot, immunohistochemistry); details: middle-aged mice, ALD treatment vs young adult and middle age controls
# Description: Death was confirmed by terminal phlebotomy/exsanguinations and perfusion.
# After sacrifice, a cochlear modiolus (CM) was dissected from the temporal bone, & pooled together for measuring NKCC1 protein and mRNA expression. The other CM was prepared for immunohistochemistry as described below. Data was analyzed using one-way ANOVA, and two-way repeated measures ANOVA through GraphPad Prism 5.0 with protein level measurements (Δ Intensity=Background tissue intensity−experimental area intensity) (GraphPad Software, La Jolla, Calif.).
# For Western blot and RT-PCR, cells were placed in RIPA buffer and sonicated. Protein concentration was measured using the Bradford method. Proteins were separated by SDS-PAGE. […]
# For immunohistochemistry, mice were sacrificed, and one of the cochleae dissected, fixed in 4% paraformaldehyde in PBS overnight at 4° C., decalcification in 10% EDTA in PBS for a week at 4° C., and incubated in cryoprotection solution overnight at 4° C. […] The spiral ganglion neurons were counted by Metamorph imaging software (Molecular Devices, Center Valley, Pa. 18034-0610) and data analyzed by GraphPad Prism (GraphPad Software, Inc. La Jolla, Calif.).
# Levels of staining for MCR presence in young adult and middle-aged mice was determined by densitometry analysis (MetaMorph Image Analysis System) of immunocytochemistry sections.
# caspase-3 = assay: Caspase-3 expression in modiolar tissue samples; details: ALD-treated middle-aged mice vs control middle-aged and young mice
# Description: (§1) During treatment, blood pressures were measured for the mice at 2 and 4 months after start of treatment. […] Death was confirmed by terminal phlebotomy/exsanguinations and perfusion. Cell lysates were collected and subject to western blot and RT-PCT analysis. The cells were placed in RIPA buffer and sonicated. Protein concentration was measured using the Bradford method. Proteins were separated by SDS-PAGE. The antibodies used for western blot were: anti-iNOS, nNOS and caspase-3 antibodies (Cell Signaling, Cambridge, Mass.). Total cellular RNA was extracted using the RNeasy Plus Mini Kit (74134). For RT-PCR, 10 ng of total cellular RNA was reverse transcribed and complementary DNA was amplified, using the Enhanced Avian HS RT-PCR-100 Kit (Sigma, HSRT20).
# iNOS and nNOS = iNOS and nNOS expression in modiolar tissue samples; details: young adult, control middle-aged, ALD-treated middle-aged mice
# Description: as §1, with “HSRT20). Primers used for qRT-PCR were as follows: […]” for “HSRT20).”
smiles,measurement,setting,value
"C[C@]12CCC(=O)C=C1CC[C@@H]1[C@@H]2[C@@H](O)C[C@]2(C=O)[C@@H](C(=O)CO)CC[C@@H]12 [ALD, aldosterone]",ABR frequency response,"CBA/CaJ mice; 12, 24, 32, 36 kHz at 2 months and 4 months, 0.0016 mg/day",showed improvement
same,"ABR thresholds, control vs ALD treated group","CBA/CaJ mice; 24, 32 and 36 kHz, at 120 days","significantly elevated in the control, non-treated, group relative to the ALD treated group"
same,ABR shift / ABR thresholds,"CBA/CaJ mice; 24 kHz and 36 kHz, 2 and 4 month of treatment, vs placebo, Example 7",reduced ABR shifts
same,ABR peak 1 amplitude,"CBA/CaJ mice; high sound levels, relative to the control group",increased significantly at high sound levels
same,dose optimal for ABR threshold improvements,"CBA/CaJ mice; slow-release subcutaneous pellets, doses 0.00048 to 0.00476 mg/day, 60 or 120 days, relative to age-matched control mice",0.0016 mg/day
same,"MCR expression levels, densitometry of immunocytochemistry sections",[1],partially rescued the expression levels seen in the young adult
same,caspase-3 levels in modiolar tissue,caspase-3,reduced caspase-3 to levels below even the young mice samples
same,iNOS and nNOS gene expression,iNOS and nNOS,no alteration in NOS expression
same,iNOS protein levels,iNOS and nNOS,approximately the same
